Experimental data taken from patent US20250144094A1 (Erasca, Inc., priority 2021, published 2025).

target: Recombinant human ULK1 (1-649) (Homo sapiens (Human), UniProt O75385); assay: ULK1 ADP Glo kinase activity assay, new method (ULKtide peptide substrate); details: 25° C., 40 minutes, read-out: ULK1 biochemical IC50
Summary of the method: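 GST-tagged human ULK1 (1-649) from Sf9 cells was reacted with ULKtide peptide and ATP for 40 min at 25 °C across 12-point compound dilutions from 10 μM. ADP formed was quantified by ADP-Glo luminescence; IC50 came from four-parameter fits relative to DMSO controls.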

Chain of Recombinant human ULK1 (1-649) (O75385 1-649): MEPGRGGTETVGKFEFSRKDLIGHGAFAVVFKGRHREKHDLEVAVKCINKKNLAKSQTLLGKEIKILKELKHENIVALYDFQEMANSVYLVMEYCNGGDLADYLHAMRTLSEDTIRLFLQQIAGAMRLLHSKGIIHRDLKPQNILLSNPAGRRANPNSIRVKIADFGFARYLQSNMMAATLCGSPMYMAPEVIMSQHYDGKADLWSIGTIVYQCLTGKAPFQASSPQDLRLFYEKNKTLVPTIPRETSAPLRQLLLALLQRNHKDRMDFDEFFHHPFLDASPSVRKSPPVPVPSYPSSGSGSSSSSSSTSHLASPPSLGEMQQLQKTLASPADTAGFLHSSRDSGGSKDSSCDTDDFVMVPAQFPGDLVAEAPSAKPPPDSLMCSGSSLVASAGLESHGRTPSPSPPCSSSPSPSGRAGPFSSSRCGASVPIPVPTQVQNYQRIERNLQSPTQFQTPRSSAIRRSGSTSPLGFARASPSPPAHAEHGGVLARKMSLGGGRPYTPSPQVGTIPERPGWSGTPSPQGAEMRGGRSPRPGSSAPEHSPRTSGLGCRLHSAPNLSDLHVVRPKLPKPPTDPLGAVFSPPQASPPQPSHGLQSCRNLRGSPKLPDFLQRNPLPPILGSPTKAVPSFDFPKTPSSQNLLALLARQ

Structure (SMILES)	IC50
CCc1cc(C2CCN(CCF)CC2)ccc1Nc1ncc(C(F)(F)F)c(-c2cc3c(s2)C(=O)N(C2CC2)CCS3(=O)=O)n1 [Example 282, 4-cyclopropyl-7-(2-((2-ethyl-4-(1-(2-fluoroethyl)piperidin-4-yl)phenyl)amino)-5-(trifluoromethyl)pyrimidin-4-yl)-3,4-dihydrothieno[2,3-f][1,4]thiazepin-5(2H)-one 1,1-dioxide]	≤ 5 nM
CNC(=O)[C@@H]1CN(c2ccc(Nc3ncc(C(F)(F)F)c(-c4cc5c(s4)C(=O)N(C4COC4)CCS5(=O)=O)n3)c(C3CC3)c2)CCN1 [Example 373, (S)-4-(3-cyclopropyl-4-((4-(4-(oxetan-3-yl)-1,1-dioxido-5-oxo-2,3,4,5-tetrahydrothieno[2,3-f][1,4]thiazepin-7-yl)-5-(trifluoromethyl)pyrimidin-2-yl)amino)phenyl)-N-methylpiperazine-2-carboxamide]	≤ 5 nM
O=C1c2sc(-c3nc(Nc4ccc(N5C[C@H]6C[C@@H]5CN6)cc4C4CC4)ncc3C(F)(F)F)cc2S(=O)(=O)CCN1C1CC1 [Example 329, 7-(2-((4-((1R,4R)-2,5-diazabicyclo[2.2.1]heptan-2-yl)-2-cyclopropylphenyl)amino)-5-(trifluoromethyl)pyrimidin-4-yl)-4-cyclopropyl-3,4-dihydrothieno[2,3-f][1,4]thiazepin-5(2H)-one 1,1-dioxide]	≤ 5 nM
O=C1c2sc(-c3nc(Nc4cc5c(nc4C4CC4)CNCC5)ncc3C(F)(F)F)cc2S(=O)(=O)CCN1C1CC1 [Example 303, 4-cyclopropyl-7-(2-((2-cyclopropyl-5,6,7,8-tetrahydro-1,7-naphthyridin-3-yl)amino)-5-(trifluoromethyl)pyrimidin-4-yl)-3,4-dihydrothieno[2,3-f][1,4]thiazepin-5(2H)-one 1,1-dioxide]	≤ 5 nM
CCc1cc(N2CCN(CC3COC3)CC2)ccc1Nc1ncc(C(F)(F)F)c(-c2cc3c(s2)C(=O)N(C2CC2)CCS3(=O)=O)n1 [Example 266, 4-cyclopropyl-7-(2-((2-ethyl-4-(4-(oxetan-3-ylmethyl)piperazin-1-yl)phenyl)amino)-5-(trifluoromethyl)pyrimidin-4-yl)-3,4-dihydrothieno[2,3-f][1,4]thiazepin-5(2H)-one 1,1-dioxide]	≤ 5 nM
CCc1cc(N2CCN[C@H](C)C2)ccc1Nc1ncc(C(F)(F)F)c(-c2cc3c(s2)C(=O)N(C2CC2)CCS3(=O)=O)n1 [Example 359, (R)-4-cyclopropyl-7-(2-((2-ethyl-4-(3-methylpiperazin-1-yl)phenyl)amino)-5-(trifluoromethyl)pyrimidin-4-yl)-3,4-dihydrothieno[2,3-f][1,4]thiazepin-5(2H)-one 1,1-dioxide]	≤ 5 nM
CCc1cc(N2CCN[C@@H](CO)C2)ccc1Nc1ncc(C(F)(F)F)c(-c2cc3c(s2)C(=O)N(C2COC2)CCS3(=O)=O)n1 [Example 355, (R)-7-(2-((2-ethyl-4-(3-(hydroxymethyl)piperazin-1-yl)phenyl)amino)-5-(trifluoromethyl)pyrimidin-4-yl)-4-(oxetan-3-yl)-3,4-dihydrothieno[2,3-f][1,4]thiazepin-5(2H)-one 1,1-dioxide]	≤ 5 nM
O=C1c2sc(-c3nc(Nc4cc5c(cc4C4CC4)CN(C4CC4)CC5)ncc3C(F)(F)F)cc2S(=O)(=O)CCN1C1COC1 [Example 301, 7-(2-((2,7-dicyclopropyl-1,2,3,4-tetrahydroisoquinolin-6-yl)amino)-5-(trifluoromethyl)pyrimidin-4-yl)-4-(oxetan-3-yl)-3,4-dihydrothieno[2,3-f][1,4]thiazepin-5(2H)-one 1,1-dioxide]	≤ 5 nM
CCc1cc(N2C[C@@H](C)N(C)[C@@H](C)C2)ccc1Nc1ncc(C(F)(F)F)c(-c2cc3c(s2)C(=O)N(C2COC2)CCS3(=O)=O)n1 [Example 369, 7-(2-((2-ethyl-4-((3S,5R)-3,4,5-trimethylpiperazin-1-yl)phenyl)amino)-5-(trifluoromethyl)pyrimidin-4-yl)-4-(oxetan-3-yl)-3,4-dihydrothieno[2,3-f][1,4]thiazepin-5(2H)-one 1,1-dioxide]	≤ 5 nM
CCc1cc(N2CCN[C@@H](C)C2)ccc1Nc1ncc(C(F)(F)F)c(-c2cc3c(s2)C(=O)N(C2CC2)CCS3(=O)=O)n1 [Example 353, (S)-4-cyclopropyl-7-(2-((2-ethyl-4-(3-methylpiperazin-1-yl)phenyl)amino)-5-(trifluoromethyl)pyrimidin-4-yl)-3,4-dihydrothieno[2,3-f][1,4]thiazepin-5(2H)-one 1,1-dioxide]	≤ 5 nM
CN1CCS(=O)(=O)c2cc(-c3nc(Nc4ccc(N5C[C@H]6C[C@@H]5CN6)cc4C4CC4)ncc3C(F)(F)F)sc2C1=O [Example 379, 7-(2-((4-((1R,4R)-2,5-diazabicyclo[2.2.1]heptan-2-yl)-2-cyclopropylphenyl)amino)-5-(trifluoromethyl)pyrimidin-4-yl)-4-methyl-3,4-dihydrothieno[2,3-f][1,4]thiazepin-5(2H)-one 1,1-dioxide]	≤ 5 nM

The next lines start with the values.

IC50	Structure (SMILES)
≤ 5 nM	CC1(CN2CCc3cc(Nc4ncc(C(F)(F)F)c(-c5cc6c(s5)C(=O)N(C5CC5)CCS6(=O)=O)n4)c(C4CC4)cc3C2)COC1 [Example 279, 4-cyclopropyl-7-(2-((7-cyclopropyl-2-((3-methyloxetan-3-yl)methyl)-1,2,3,4-tetrahydroisoquinolin-6-yl)amino)-5-(trifluoromethyl)pyrimidin-4-yl)-3,4-dihydrothieno[2,3-f][1,4]thiazepin-5(2H)-one 1,1-dioxide]
≤ 5 nM	CN1Cc2cc(Cl)c(Nc3ncc(C(F)(F)F)c(-c4cc5c(s4)C(=O)N(C)CCS5(=O)=O)n3)cc2C1 [Example 181, 7-(2-((6-chloro-2-methylisoindolin-5-yl)amino)-5-(trifluoromethyl)pyrimidin-4-yl)-4-methyl-3,4-dihydrothieno[2,3-f][1,4]thiazepin-5(2H)-one 1,1-dioxide]
≤ 5 nM	CN1CCS(=O)(=O)c2cc(-c3nc(Nc4cc5c(cc4Cl)CCNC5)ncc3C(F)(F)F)sc2C1=O [Example 159, 7-(2-((6-chloro-1,2,3,4-tetrahydroisoquinolin-7-yl)amino)-5-(trifluoromethyl)pyrimidin-4-yl)-4-methyl-3,4-dihydrothieno[2,3-f][1,4]thiazepin-5(2H)-one 1,1-dioxide]
≤ 5 nM	O=C1c2sc(-c3nc(Nc4cc5c(cc4Cl)CNCC5)ncc3C(F)(F)F)cc2S(=O)(=O)CCN1C1COC1 [Example 210, 7-(2-((7-chloro-1,2,3,4-tetrahydroisoquinolin-6-yl)amino)-5-(trifluoromethyl)pyrimidin-4-yl)-4-(oxetan-3-yl)-3,4-dihydrothieno[2,3-f][1,4]thiazepin-5(2H)-one 1,1-dioxide]
5 to 10 nM	O=C1c2sc(-c3nc(Nc4cc5c(cc4C4CC4)CN(CCOC(F)(F)F)CC5)ncc3C(F)(F)F)cc2S(=O)(=O)CCN1C1COC1 [Example 312, 7-(2-((7-cyclopropyl-2-(2-(trifluoromethoxy)ethyl)-1,2,3,4-tetrahydroisoquinolin-6-yl)amino)-5-(trifluoromethyl)pyrimidin-4-yl)-4-(oxetan-3-yl)-3,4-dihydrothieno[2,3-f][1,4]thiazepin-5(2H)-one 1,1-dioxide]
≤ 5 nM	CCc1cc(N2CCNCC2)ccc1Nc1ncc(C(F)(F)F)c(-c2cc3c(s2)C(=O)N(C)CCS3(=O)=O)n1 [Example 174, 7-(2-((2-ethyl-4-(piperazin-1-yl)phenyl)amino)-5-(trifluoromethyl)pyrimidin-4-yl)-4-methyl-3,4-dihydrothieno[2,3-f][1,4]thiazepin-5(2H)-one 1,1-dioxide]
≤ 5 nM	CCc1cc(N2CCN[C@H](C)C2)ccc1Nc1ncc(C(F)(F)F)c(-c2cc3c(s2)C(=O)N(C2COC2)CCS3(=O)=O)n1 [Example 406, (R)-7-(2-((2-ethyl-4-(3-methylpiperazin-1-yl)phenyl)amino)-5-(trifluoromethyl)pyrimidin-4-yl)-4-(oxetan-3-yl)-3,4-dihydrothieno[2,3-f][1,4]thiazepin-5(2H)-one 1,1-dioxide]
≤ 5 nM	CCN1CCc2cc(Nc3ncc(C(F)(F)F)c(-c4cc5c(s4)C(=O)N(CC)CCS5(=O)=O)n3)c(C3CC3)cc2C1 [Example 199, 7-(2-((7-cyclopropyl-2-ethyl-1,2,3,4-tetrahydroisoquinolin-6-yl)amino)-5-(trifluoromethyl)pyrimidin-4-yl)-4-ethyl-3,4-dihydrothieno[2,3-f][1,4]thiazepin-5(2H)-one 1,1-dioxide]
≤ 5 nM	CCc1cc(N2C[C@H]3C[C@@H]2CN3)ccc1Nc1ncc(C(F)(F)F)c(-c2cc3c(s2)C(=O)N(C2COC2)CCS3(=O)=O)n1 [Example 336, 7-(2-((4-((1R,4R)-2,5-diazabicyclo[2.2.1]heptan-2-yl)-2-ethylphenyl)amino)-5-(trifluoromethyl)pyrimidin-4-yl)-4-(oxetan-3-yl)-3,4-dihydrothieno[2,3-f][1,4]thiazepin-5(2H)-one 1,1-dioxide]
